Measurements: patent US11713335B2, “Aminocoumarin compounds and methods of their use” (President and Fellows of Harvard College, priority 2018, dated 2023)
Values after ≈ are worked out from the molar mass of the structure shown. Read-outs that look alike come from different tables or passages of the source.

Tests used:
E. coli 25922 = assay: Minimal inhibitory concentration, E. coli 25922; assay type: cell-based; settings: 16 hour minimal inhibitory concentration at 37° C., read-out: MIC (μM) E. coli 25922
In short: (§1)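 MICs (µM) correspond to the lowest concentration stopping bacterial growth, judged by visible-light absorbance at 600 nm following a 16 h static incubation at 37 °C. Compounds were titrated twofold into doubly 1:100-diluted saturated cultures.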

A. baumannii 19606 = assay: Minimal inhibitory concentration, A. baumannii 19606; assay type: cell-based; settings: 16 hour minimal inhibitory concentration at 37° C., read-out: MIC (μM) A. baumannii 19606
In short: as §1

S. aureus RN4220 = assay: Minimal inhibitory concentration, S. aureus RN4220; assay type: cell-based; settings: 16 hour minimal inhibitory concentration at 37° C., read-out: MIC (μM) S. aureus RN4220
In short: as §1

E. coli MC4100 = assay: Minimal inhibitory concentration, E. coli MC4100; assay type: cell-based; settings: 16 hour minimal inhibitory concentration at 37° C., read-out: MIC (μM) E. coli MC4100 ara+
In short: as §1

K. pneumoniae 700721 = assay: Minimal inhibitory concentration, K. pneumoniae 700721; assay type: cell-based; settings: 16 hour minimal inhibitory concentration at 37° C., read-out: MIC (μM) K. pneumoniae 700721
In short: as §1

S. aureus MW2 = assay: Minimal inhibitory concentration, S. aureus MW2; assay type: cell-based; settings: 16 hour minimal inhibitory concentration at 37° C., read-out: MIC (μM) S. aureus MW2 (MRSA)
In short: as §1

WT E. coli = assay: Minimal inhibitory concentration in wild-type E. coli; assay type: cell-based, Escherichia coli; settings: wild-type E. coli, 37° C., 16 hours, read-out: MIC (μM) in WT E. coli
In short: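 Broth microdilution: saturated LB overnight culture diluted 1:100 twice, compound serially two-fold diluted across the plate from DMSO stock. Static incubation 16 hours at 37° C, OD600 read; MIC taken as lowest concentration inhibiting growth.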

E. cloacae 13047 = assay: Minimal inhibitory concentration, E. cloacae 13047; assay type: cell-based; settings: 16 hour minimal inhibitory concentration at 37° C., read-out: MIC (μM) E. cloacae 13047
In short: as §1

Structure (SMILES) | MIC (E. coli 25922) [µM] | MIC (A. baumannii 19606) [µM] | MIC (S. aureus RN4220) [µM] | MIC (E. coli MC4100) [µM] | MIC (K. pneumoniae 700721) [µM] | MIC (S. aureus MW2) [µM] | MIC (WT E. coli) [µM] | MIC (E. cloacae 13047) [µM] | MIC (E. coli 25922; Escherichia coli, 25922, 16 h) [µM] | MIC (A. baumannii 19606; Acinetobacter baumannii, 19606, 16 h) [µM] | MIC (S. aureus RN4220; Staphylococcus aureus, RN4220, 16 h) [µM] | MIC (E. coli MC4100; Escherichia coli, MC4100, 16 h) [µM] | MIC (K. pneumoniae 700721; Klebsiella pneumoniae, 700721) [µM] | MIC (S. aureus MW2; Staphylococcus aureus, MRSA, 16 h) [µM] | MIC (WT E. coli; Escherichia coli) [µM] | MIC (E. cloacae 13047; Enterobacter cloacae, 13047) [µM]
CO[C@@H]1[C@@H](OC(N)=O)[C@@H](O)[C@H](Oc2ccc3c(O)c(NC(=O)c4cc(-c5ccccc5)ccc4O)c(=O)oc3c2C)OC1(C)C [Compound 87] | 20 (≈ 12.4 µg/mL) | >50 | 20 (≈ 12.4 µg/mL) | 18 (≈ 11.2 µg/mL) | 40 (≈ 24.8 µg/mL) | 20 (≈ 12.4 µg/mL) | 18 (≈ 11.2 µg/mL) | >100 |  |  |  |  |  |  |  | 
CO[C@@H]1[C@@H](OC(N)=O)[C@@H](O)[C@H](Oc2ccc3c(O)c(NC(=O)c4cccc(-c5ccccc5)c4O)c(=O)oc3c2C)OC1(C)C [Compound 88] | 161 (≈ 99.9 µg/mL) | >50 | >100 | 89 (≈ 55.2 µg/mL) | >100 | 81 (≈ 50.3 µg/mL) | 89 (≈ 55.2 µg/mL) | >100 |  |  |  |  |  |  |  | 
CO[C@@H]1[C@@H](OC(N)=O)[C@@H](O)[C@H](Oc2ccc3c(O)c(NC(=O)c4cc(N)cc(-c5ccccc5)c4)c(=O)oc3c2C)OC1(C)C [Compound 89] | 81 (≈ 50.2 µg/mL) | >50 | 20 (≈ 12.4 µg/mL) | 59 (≈ 36.6 µg/mL) | >100 | 10 (≈ 6.2 µg/mL) | 59 (≈ 36.6 µg/mL) | >100 |  |  |  |  |  |  |  | 
CO[C@@H]1[C@@H](OC(N)=O)[C@@H](O)[C@H](Oc2ccc3c(O)c(NC(=O)c4ccc(O)c(CC(N)=O)c4)c(=O)oc3c2C)OC1(C)C [Compound 90] | >200 | >50 | >100 | >200 | >100 | >100 | >300 | >100 |  |  |  |  |  |  |  | 
CO[C@@H]1[C@@H](OC(N)=O)[C@@H](O)[C@H](Oc2ccc3c(O)c(NC(=O)c4ccc(O)c(CCC(N)=O)c4)c(=O)oc3c2C)OC1(C)C [Compound 91] | >200 | >50 | >100 | >200 | >100 | >100 | >300 | >100 |  |  |  |  |  |  |  | 
CO[C@@H]1[C@@H](OC(N)=O)[C@@H](O)[C@H](Oc2ccc3c(O)c(NC(=O)c4ccc(O)c(-c5ccc6ccccc6c5)c4)c(=O)oc3c2C)OC1(C)C [Compound 92] | >200 | 1.16 (≈ 0.778 µg/mL) | 0.09 (≈ 0.0604 µg/mL) | 150 (≈ 101 µg/mL) | >100 | 0.09 (≈ 0.0604 µg/mL) | 150 (≈ 101 µg/mL) | >100 |  |  |  |  |  |  |  | 
CO[C@@H]1[C@@H](OC(N)=O)[C@@H](O)[C@H](Oc2ccc3c(O)c(NC(=O)c4ccc(O)c(-c5cccc6ccccc56)c4)c(=O)oc3c2C)OC1(C)C [Compound 93] | >200 | >50 | 37 (≈ 24.8 µg/mL) | 75 (≈ 50.3 µg/mL) | >100 | 19 (≈ 12.7 µg/mL) | 75 (≈ 50.3 µg/mL) | >100 |  |  |  |  |  |  |  | 
CO[C@@H]1[C@@H](OC(N)=O)[C@@H](O)[C@H](Oc2ccc3c(O)c(NC(=O)c4cccc(-c5ccc(O)c(O)c5)c4)c(=O)oc3c2C)OC1(C)C [Compound 94] | >200 | >50 | 20 (≈ 12.7 µg/mL) | >200 | >100 | 20 (≈ 12.7 µg/mL) | >300 | >100 |  |  |  |  |  |  |  | 
CO[C@@H]1[C@@H](OC(N)=O)[C@@H](O)[C@H](Oc2ccc3c(O)c(NC(=O)c4cc(O)c(O)c(-c5ccc(F)cc5)c4)c(=O)oc3c2C)OC1(C)C [Compound 95] | 38 (≈ 24.9 µg/mL) | >50 | 38 (≈ 24.9 µg/mL) | 38 (≈ 24.9 µg/mL) | >100 | 38 (≈ 24.9 µg/mL) | 38 (≈ 24.9 µg/mL) | >100 |  |  |  |  |  |  |  | 
CO[C@@H]1[C@@H](OC(N)=O)[C@@H](O)[C@H](Oc2ccc3c(O)c(NC(=O)c4cc(O)c(O)c(-c5ccc6ccccc6c5)c4)c(=O)oc3c2C)OC1(C)C [Compound 96] | 146 (≈ 100 µg/mL) | 18 (≈ 12.4 µg/mL) | 9 (≈ 6.18 µg/mL) | >200 | 76 (≈ 52.2 µg/mL) | 9 (≈ 6.18 µg/mL) | >300 | >100 |  |  |  |  |  |  |  | 
CO[C@@H]1[C@@H](OC(N)=O)[C@@H](O)[C@H](Oc2ccc3c(O)c(NC(=O)c4cc(-c5ccc(F)cc5)cc(O)c4O)c(=O)oc3c2C)OC1(C)C [Compound 97] | 153 (≈ 100 µg/mL) | >50 | 76 (≈ 49.7 µg/mL) | >200 | >100 | 38 (≈ 24.9 µg/mL) | >300 | >100 |  |  |  |  |  |  |  | 
CO[C@@H]1[C@@H](OC(N)=O)[C@@H](O)[C@H](Oc2ccc3c(O)c(NC(=O)c4cc(-c5ccc6ccccc6c5)cc(O)c4O)c(=O)oc3c2C)OC1(C)C [Compound 98] | >200 | 36 (≈ 24.7 µg/mL) | 18 (≈ 12.4 µg/mL) | >200 | >100 | 18 (≈ 12.4 µg/mL) | >300 | >100 |  |  |  |  |  |  |  | 
CO[C@@H]1[C@@H](OC(N)=O)[C@@H](O)[C@H](Oc2ccc3c(O)c(NC(=O)c4cccc(-c5cccc(O)c5O)c4)c(=O)oc3c2C)OC1(C)C [Compound 99] | >200 | >50 | 79 (≈ 50.3 µg/mL) | >200 | >100 | 79 (≈ 50.3 µg/mL) | >300 | >100 |  |  |  |  |  |  |  | 
CO[C@@H]1[C@@H](OC(N)=O)[C@@H](O)[C@H](Oc2ccc3c(O)c(NC(=O)c4ccc(O)c(CC=C(C)C)c4)c(=O)oc3c2C)OC1(C)C [Novobiocin, novobiocin, reference compound] |  |  |  |  |  |  |  |  | 40 (≈ 24.5 µg/mL) | 1.27 (≈ 0.778 µg/mL) | 0.2 (≈ 0.123 µg/mL) | 59 (≈ 36.1 µg/mL) | > 100 | 0.25 (≈ 0.153 µg/mL) | 59 (≈ 36.1 µg/mL) | > 100
